Measurements published in PMC9428149, “Tackling recalcitrant Pseudomonas aeruginosa infections in critical illness via anti-virulence monotherapy” (Nature Communications, 2022).
In brackets after ≈: the same amount, converted by molar mass. Several values for one entry are separate records, joined by “and”; a condition that tells them apart may be missing. Equal entries are not always repeated. Where two headings read alike, the source gives them in different places.

Assays:
[1] = tested on: PA14 isogenic mutant ΔmvfR AT/P cells; experiment: AT/P cell formation in ΔmvfR mutant (off-target); details: Pseudomonas aeruginosa, PA14, 24 h, read-out: AT/P cell formation, ΔmvfR + compound; PA14 about 100; single replicates (Figure 4b)
Description: Cells were grown in the presence of 10 μg mL^−1 meropenem, with or without 10 µM of the compounds for 24 h. Values were normalized to cells grown for 4 h in the absence of antibiotics and compounds. The ∆mvfR cells grown with antibiotics and vehicles were considered control, and the percentage values were calculated compared to control. c Biofilm formation of mutant ∆mvfR cells with or without compound. […] The number of biological replicates for each compound and strain is depicted in the graph. The error bars denote ±SEM.
The AT/P cell formation assay was performed according to the method previously described in Starkey et al., 2014 (persister cell assay). The over-day culture was incubated at 37 °C with shaking at 200 rpm until the culture OD600nm was 3.0. The culture was then diluted at 1:100 and grown in the same conditions for 4 h. After 4 h, 200 µL were collected, and serial dilutions were plated on LB agar plates for CFU quantification (as normalizers). The remainder of the culture was treated with meropenem to a final concentration of 100 × MIC (Minimum Inhibitory Concentration; 10 mg L^−1) and compounds at a final concentration of 10 µM. After 24 h, culture aliquots were 10-fold serially diluted in LB broth and plated on LB agar for CFU quantification. The AT/P fraction was determined as the normalizers (pre-antibiotic) ratio divided by the AT/P fraction (24 h post-antibiotic)[22].

[2] = tested on: pqsA promoter (PA14 PpqsA-GFPASV); experiment: pqsA-GFP reporter expression; format: cell-based, Pseudomonas aeruginosa
PA14 AT/P cells = experiment: AT/P cells formation assay in PA14; format: cell-based, Pseudomonas aeruginosa; details: Pseudomonas aeruginosa, PA14, 24 h, read-out: inhibition of AT/P cells formation
ΔmvfR biofilm = experiment: Biofilm formation of ΔmvfR mutant (off-target); details: Pseudomonas aeruginosa, PA14, 24 h, read-out: Biofilm formation, ΔmvfR + compound; PA14 about 100; single replicates (Figure 4c)
MvfR protein (MvfRC87) = molecular target: T1, MvfR protein (MvfRC87) (Pseudomonas aeruginosa, UniProt Q9I4X0); format: binding; details: SPR
T1 construct: The MvfRC87 protein purified as in Xiao et. al., 2006; made in house
T1 sequence (Q9I4X0 87-332): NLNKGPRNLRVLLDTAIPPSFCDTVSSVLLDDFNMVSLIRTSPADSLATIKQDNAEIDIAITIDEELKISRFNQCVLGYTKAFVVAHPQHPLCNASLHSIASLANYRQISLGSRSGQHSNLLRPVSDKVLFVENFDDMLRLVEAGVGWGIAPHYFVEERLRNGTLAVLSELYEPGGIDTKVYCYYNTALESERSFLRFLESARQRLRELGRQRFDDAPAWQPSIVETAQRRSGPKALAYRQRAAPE
Description: The selected compounds were tested for their ability to bind to MvfR. Target validation was carried out by using surface plasmon resonance (SPR). The MvfRC87 protein purified as in Xiao et. al., 2006[33] was covalently immobilized on a CM7 Series S sensor chip using an amine coupling reagent kit (GE Healthcare) at the range level of 3000 to 5000 response units (RU). RU was analyzed by Biacore T200 evaluation software 2.0 (GE Healthcare). The relative response units (RUs) 5 seconds before the end of the association were extracted from the double-reference-corrected sensor grams at different concentrations. These responses were plotted against their respective concentrations for MvfR inhibitor alone and in the presence of native MvfR ligand PQS and compared to the calculated responses for the mixture expected for different binding sites.

[3] = tested on: pyocyanin production in PA14; experiment: Pyocyanin production assay; details: Pseudomonas aeruginosa
[4] = Solubility in iPBS pH 7.4 by HPLC; format: physicochemical; details: isotonic phosphate buffer (iPBS)
Procedure, shortened: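 Compounds from 10 mM DMSO stock shaken 4 h at room temperature in iPBS pH 7.4 (10 mM PBS, 2.7 mM KCl, 140 mM NaCl, 0.05% Tween), then filtered. Concentration measured by HPLC-UV against a known standard solution; solubility given as ratio of compound in test solution to standard.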

[5] = tested on: 16 MDR P. aeruginosa clinical isolates; experiment: Pyocyanin production in MDR clinical isolates; details: Pseudomonas aeruginosa, 18 h, Control about 100, replicates
[6] = tested on: MvfR-regulated small molecules in PA14; experiment: Production of HAQs, 2-AA, DHQ and AA in PA14 cultures (LC-MS); details: for 2-AA / DHQ / HHQ / HQNO / PQS: Figure 5a; for 2-AA / DHQ / HHQ / HQNO / PQS / AA: replicates; for AA: Figure 5b; for activity at 50 µM / IC50 / inhibition at 50 µM: Pseudomonas aeruginosa
Description: The HAQs HHQ, PQS, HQNO, and non-HAQs: 2-AA and DHQ produced by PA14 cells were quantified in the presence of NAMs. The overnight grown starter culture was diluted 1:100 in 5 mL LB media in a glass tube and was allowed to grow in the presence (50 µM) or absence of compound at 37 °C and 200 rpm in an incubator shaker until OD600 was 3. Bacterial cultures were subsequently mixed 1:1 (400 μL: 400 μL) with 100% methanol containing 20 ppm (20 μg mL^−1) of tetradeutero-PQS (PQS-D4) and 10 ppm of tetradeutero-HHQ (HHQ-D4) in a 1.5 mL Eppendorf tube. The mixture was vortexed for 5 seconds and spun down for 5 minutes at 12,000 x g. A 700 μL aliquot of the supernatant was removed and stored in glass vials at −20 °C until further liquid chromatography-mass spectrophotometry (LC/MS) analysis as previously described in Lepine et al., 2003[66]. LC/MC analysis was performed using a Micromass Quattro II triple quadrupole mass spectrometer (Micromass Canada, Pointe-Claire, Canada) in positive electrospray ionization mode, interfaced to an HP1100 HPLC equipped with a 4.5 × 150 mm reverse-phase C8 column.
GraphPad Prism 9.2.0 software was used to plot the IC50 curve against the percent inhibition of these small molecules’ production at each concentration.

Compound: N#Cc1ccc(NC(=O)C(F)C(=O)Nc2ccc(Oc3ccccc3)cc2)cc1 (stereo not shown) [D88]
- activity at 10 µM [1]: 34.2%
- activity at 50 µM ([2]; Pseudomonas aeruginosa, PA14, read-out: % Production pqsA-GFP): 2%
- IC50 ([2]; Pseudomonas aeruginosa, PA14, read-out: IC50 pqsA-GFP expression, PA14, 13 concentrations): 1360 nM
- IC50 ([2]; read-out: IC50 pqsA-GFP expression, PA14, 13 concentrations): 1310 nM
- inhibition at 10 µM (PA14 AT/P cells): ≥ 76%
- activity at 10 µM (ΔmvfR biofilm): 43.6%
- Response Unit (RU) (MvfR protein (MvfRC87); Concentration 1.00E-05 M): 36.6 RU
- Response Unit (RU) (MvfR protein (MvfRC87); Concentration 1.00E-06 M): 18.2 RU
- Response Unit (RU) (MvfR protein (MvfRC87); Concentration 1.00E-07 M): 5.5 RU
- Response Unit (RU) (MvfR protein (MvfRC87); Concentration 1.00E-08 M): 0.4 RU
- Response Unit (RU) (MvfR protein (MvfRC87); Concentration 3.16E-06 M): 28.1 RU
- Response Unit (RU) (MvfR protein (MvfRC87); Concentration 3.16E-07 M): 10.5 RU
- Response Unit (RU) (MvfR protein (MvfRC87); Concentration 3.16E-08 M): 2.3 RU
- activity at 50 µM ([3]; PA14, 18 h, read-out: % Production Pyocyanin): 6%
- IC50 ([3]; PA14, read-out: IC50 pyocyanin production): 530 nM
- solubility at 4 h ([4]; aqueous with cosolvent or surfactant or cyclodextrin, kinetic from dmso stock, iPBS pH 7.4, HPLC, read-out: Solubility (M) in PBS): 0.00049 M (≈ 191 µg/mL)
- solubility at 4 h ([4]; pH 7.4, HPLC, read-out: solubility): 0.00049 M (≈ 191 µg/mL)
- activity at 10 µM ([5]; read-out: Pyocyanin production relative to Control, clinical isolate LGR-4325): 17.1%
- activity at 10 µM ([5]; read-out: Pyocyanin production relative to Control, clinical isolate LGR-4326): 8.91%
- activity at 10 µM ([5]; read-out: Pyocyanin production relative to Control, clinical isolate LGR-4327): 8.23%
- activity at 10 µM ([5]; read-out: Pyocyanin production relative to Control, clinical isolate LGR-4328): 27.7%
- activity at 10 µM ([5]; read-out: Pyocyanin production relative to Control, clinical isolate LGR-4330): 33.3%
- activity at 10 µM ([5]; read-out: Pyocyanin production relative to Control, clinical isolate LGR-4331 (first section, r117)): 12.7%
- activity at 10 µM ([5]; read-out: Pyocyanin production relative to Control, clinical isolate LGR-4331 (second section, r140)): 5.55%
- activity at 10 µM ([5]; read-out: Pyocyanin production relative to Control, clinical isolate LGR-4333): 10.5%
- activity at 10 µM ([5]; read-out: Pyocyanin production relative to Control, clinical isolate LGR-4343): 12.2%
- activity at 10 µM ([5]; read-out: Pyocyanin production relative to Control, clinical isolate LGR-4344): 12.7%
- activity at 10 µM ([5]; read-out: Pyocyanin production relative to Control, clinical isolate LGR-4348): 8.7%
- activity at 10 µM ([5]; read-out: Pyocyanin production relative to Control, clinical isolate LGR-4356): 10.8%
- activity at 10 µM ([5]; read-out: Pyocyanin production relative to Control, clinical isolate LGR-4362): 13.9%
- activity at 10 µM ([5]; read-out: Pyocyanin production relative to Control, clinical isolate LGR-4363): 17.7%
- activity at 10 µM ([5]; read-out: Pyocyanin production relative to Control, clinical isolate LGR-4364 (first section, r326)): 17.2%
- activity at 10 µM ([5]; read-out: Pyocyanin production relative to Control, clinical isolate LGR-4364 (second section, r349)): 19.4%
- 2-AA ([6]; Compound 4.88e-8 M): 20.87 and 7.96 and 12.86
- DHQ ([6]; Compound 4.88e-8 M): 15.28 and 24.13 and 25.25
- HHQ ([6]; Compound 4.88e-8 M): -10.38 and -9.83 and -4.34
- HQNO ([6]; Compound 4.88e-8 M): 23.03 and 20.64 and 19.09
- 2-AA ([6]; Compound 9.77e-8 M): 21.63 and 8.61 and -0.13
- DHQ ([6]; Compound 9.77e-8 M): 23.53 and 26.23 and 29.13
- HHQ ([6]; Compound 9.77e-8 M): 0.19 and 2.23 and -9.33
- HQNO ([6]; Compound 9.77e-8 M): 18.24 and 19.63 and 16.60
- PQS ([6]; Compound 9.77e-8 M): 1.00 and -2.02 and -4.38
- 2-AA ([6]; Compound 1.95e-7 M): 4.17 and 23.60 and 8.88
- DHQ ([6]; Compound 1.95e-7 M): 24.27 and 28.60 and 33.04
- HHQ ([6]; Compound 1.95e-7 M): -0.13 and 9.98 and 9.62
- HQNO ([6]; Compound 1.95e-7 M): 22.51 and 25.08 and 21.13
- 2-AA ([6]; Compound 3.91e-7 M): 26.65 and 26.00 and 18.02
- DHQ ([6]; Compound 3.91e-7 M): 19.73 and 32.57 and 33.17
- HHQ ([6]; Compound 3.91e-7 M): 5.11 and 8.17 and 11.07
- HQNO ([6]; Compound 3.91e-7 M): 30.53 and 30.32 and 29.72
- PQS ([6]; Compound 3.91e-7 M): -1.07 and -0.58 and 0.13
- 2-AA ([6]; Compound 7.81e-7 M): 26.65 and 26.00 and 18.02
- DHQ ([6]; Compound 7.81e-7 M): 19.73 and 32.57 and 33.17
- HHQ ([6]; Compound 7.81e-7 M): 5.11 and 8.17 and 11.07
- HQNO ([6]; Compound 7.81e-7 M): 30.53 and 30.32 and 29.72
- PQS ([6]; Compound 7.81e-7 M): -1.07 and -0.58 and 0.13
- 2-AA ([6]; Compound 1.56e-6 M): 57.52 and 53.71 and 61.03
- DHQ ([6]; Compound 1.56e-6 M): 42.56 and 47.41 and 47.02
- HQNO ([6]; Compound 1.56e-6 M): 65.26 and 66.09 and 66.02
- PQS ([6]; Compound 1.56e-6 M): 20.92 and 18.95 and 23.15
- 2-AA ([6]; Compound 3.13e-6 M): 77.80 and 71.94 and 73.15
- DHQ ([6]; Compound 3.13e-6 M): 23.18 and 25.25 and 33.98
- HHQ ([6]; Compound 3.13e-6 M): 18.71 and 27.16 and 24.99
- HQNO ([6]; Compound 3.13e-6 M): 83.76 and 83.46 and 82.00
- PQS ([6]; Compound 3.13e-6 M): 64.68 and 63.03 and 59.62
- 2-AA ([6]; Compound 6.25e-6 M): 94.51 and 93.72 and 94.23
- DHQ ([6]; Compound 6.25e-6 M): 82.36 and 85.39 and 83.09
- HHQ ([6]; Compound 6.25e-6 M): 97.83 and 98.02 and 97.82
- HQNO ([6]; Compound 6.25e-6 M): 95.97 and 95.46 and 95.76
- PQS ([6]; Compound 6.25e-6 M): 95.61 and 95.53 and 95.05
- 2-AA ([6]; Compound 1.25e-5 M): 96.17 and 96.56 and 95.88
- DHQ ([6]; Compound 1.25e-5 M): 89.15 and 89.66 and 90.01
- HHQ ([6]; Compound 1.25e-5 M): 98.67 and 99.17 and 97.08
- HQNO ([6]; Compound 1.25e-5 M): 97.36 and 97.63 and 97.60
- PQS ([6]; Compound 1.25e-5 M): 98.30 and 97.73 and 97.38
- 2-AA ([6]; Compound 2.5e-5 M): 96.54 (2×) and 95.16
- DHQ ([6]; Compound 2.5e-5 M): 90.35 and 91.27 and 89.56
- HHQ ([6]; Compound 2.5e-5 M): 99.13 (2×) and 96.58
- HQNO ([6]; Compound 2.5e-5 M): 97.58 and 97.87 and 97.81
- PQS ([6]; Compound 2.5e-5 M): 98.11 and 97.67 and 97.24
- 2-AA ([6]; Compound 5e-5 M): 97.65 and 97.17 and 97.36
- DHQ ([6]; Compound 5e-5 M): 92.04 and 92.63 and 92.02
- HHQ ([6]; Compound 5e-5 M): 98.82 and 99.10 and 99.16
- HQNO ([6]; Compound 5e-5 M): 98.11 and 98.35 and 97.80
- PQS ([6]; Compound 5e-5 M): 97.51 and 97.36 and 96.79
- AA ([6]; Compound 1.25E-05 M): 599.608 and 615.624 and 726.139
- AA ([6]; Compound 1.56E-06 M): 43.3838 and 42.5844 and 52.2801
- AA ([6]; Compound 1.95E-07 M): 66.4944 and 66.9002 and 61.8554
- AA ([6]; Compound 2.50E-05 M): 648.607 and 690.995 and 748.985
- AA ([6]; Compound 3.13E-06 M): 37.3675 and 38.4724 and 34.81
- AA ([6]; Compound 4.88E-08 M): 60.2138 and 71.5203 and 96.3706
- AA ([6]; Compound 5.00E-05 M): 538.963 and 599.424 and 657.09
- AA ([6]; Compound 6.25E-06 M): 537.56 and 609.034 and 598.829
- AA ([6]; Compound 7.81E-07 M): 70.2961 and 63.8933 and 86.4668
- AA ([6]; Compound 9.77E-08 M): 72.0385 and 90.409 and 103.511
- activity at 50 µM ([6]; PA14, read-out: % Production 2-AA): 7%
- activity at 50 µM ([6]; PA14, read-out: % Production AA): 832%
- activity at 50 µM ([6]; PA14, read-out: % Production DHQ): 7%
- activity at 50 µM ([6]; PA14, read-out: % Production HHQ): 1%
- activity at 50 µM ([6]; PA14, read-out: % Production HQNO): 14%
- activity at 50 µM ([6]; PA14, read-out: % Production PQS): 4%
- IC50 ([6]; PA14, read-out: AA, dose-dependent production (IC50 curve)): 4700 nM
- inhibition at 50 µM ([6]; PA14, read-out: HHQ production inhibition): 89 to 99%
- inhibition at 50 µM ([6]; PA14, read-out: HQNO production inhibition): 40 to 92%
- IC50 ([6]; PA14, read-out: IC50 against 2-AA production): 1500 nM
- IC50 ([6]; PA14, read-out: IC50 against DHQ production): 4140 nM
- IC50 ([6]; PA14, read-out: IC50 against HHQ production): 3100 nM
- IC50 ([6]; PA14, read-out: IC50 against HQNO production): 1300 nM
- IC50 ([6]; PA14, read-out: IC50 against PQS production): 2100 nM
- inhibition at 50 µM ([6]; PA14, read-out: PQS production inhibition): 76 to 97%
- inhibition at 50 µM ([6]; PA14, read-out: inhibition of 2-AA production): 82 to 95%
- inhibition at 50 µM ([6]; PA14, read-out: inhibition of DHQ production): 82 to 96%
